Source: patent US10030027B2, “Soluble guanylate cyclase stimulators” (MERCK SHARP & DOHME CORP., priority 2015, dated 2018)

How the values were obtained:
[1] = target: human recombinant sGC enzyme (Homo sapiens (Human), UniProt Q02108+Q02153); assay: Size Exclusion Chromatography (SEC) competition binding assay using [3H] Ex-77B as the radioligand; conditions: [3H] Ex-77B radioligand, 24 hours at 37° C.
Method in brief: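 Recombinant human sGC binding measured by competition against tritiated Ex-77B radioligand, with non-specific binding defined by 1 μM unlabeled Ex-77B.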

[2] = target: sGC α1/β1 heterodimer (Homo sapiens (Human), UniProt Q02108+Q02153); assay: Cell-based sGC functional assay (cyclic GMP assay for sGC activator: CASA assay); conditions: CHO-K1/sGC cells; for Emax: CHO-K1, activity expressed as percentage of compound A (standard), read-out: % Activation; for EC50: inflection point, 4P fit, read-out: IP
Method in brief: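 CHO-K1 cells stably expressing human sGC α1/β1 were pre-incubated 30 min at 25° C with or without 1 μM DETA-NO, then exposed to compound for 1 hr at 37° C with 0.5 mM IBMX and 2.5% DMSO final. Intracellular cGMP was measured by HTRF, expressed as % of reference sGC-HDA maximum; inflection point and maximum fold induction came from 4-parameter fits.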

[3] = tested on: hypoxia-induced pulmonary hypertension rat; assay: Acute efficacy in hypoxia-induced pulmonary hypertension in rat following intratracheal administration; type: in vivo
Source text: Acute Efficacy in Hypoxia-Induced Pulmonary Hypertension in Rat Following Intratracheal Administration Charles River Sprague-Dawley (CD) male rats weighing approximately 350 g were implanted with HD-S21 dual pressure telemetry transmitters (Data Sciences International (DSI)) into the pulmonary artery and femoral artery. This transmitter enables simultaneous measurement of both pulmonary and systemic hemodynamic parameters in the same animal. After a 7-10 day post-operative recovery period, animals were subjected to a normobaric hypoxic (10% oxygen) environment using a Higher Peak Mountain Air Generator (MAG-10) connected to a modified rodent cage via a fitted inlet port. Oxygen (at 10%), temperature, humidity, and CO2 were controlled within normal range and animals were maintained on a 12 hour light-dark cycle with ad libitum access to food and water. After two weeks exposure to 10% O2 hypoxic environment, systolic pulmonary arterial pressure readings increased from 25 mmHg to greater than 50 mmHg. Using a 48 hour baseline average, animals with readings between 50-110 mmHg (standard deviation of less than 10 mmHg) and minimal changes in systolic systemic blood pressure were enrolled for study. Animals were utilized for up to 2 studies per week for 4 weeks with a minimum of 2 days washout between doses of test agent. Compound or vehicle was administered intra-tracheally under light isoflurane anesthesia (5% in oxygen; flow rate 2.0 L/min for 3 minutes). Once anesthetized, rats were placed on an angled intubation stand in supine position and the trachea visualized using a small laryngoscope. Animals then received either 0.5 mL/kg of vehicle or 0.5 mL/kg vehicle containing compound intra-tracheally delivered via microsprayer by use of a Penn-Century Microsprayer® needle 3″ (Model IA-1B-GP) attached to a 1 mL high pressure syringe (Penn Century-Model B-SYR-PL1000) (Penn-Century, Philadelphia, Pa.). The Microsprayer® tip was inserted into the trachea up to the point at which the bend in the needle is close to the tip of the snout, which positions the tip of the Microsprayer® in front of the carina (bifurcation of trachea at the bronchi). After dose delivery the animal is placed on its back in the home cage for recovery. Hemodynamic measurements were continuously recorded and readings consolidated to hourly moving averages. Each animal received a vehicle on Day 1 followed by vehicle or test agent on Day 2. Change from vehicle baseline was calculated by subtracting the hourly Day 1 vehicle response from the hourly Day 2 response and treatment group data was expressed as mean±SEM. Decreases of systolic blood pressure (SBP) and systolic pulmonary arterial pressure (PAP) were measured at a particular IT dose (mpk milligrams per kilogram) for the following Example compounds.

Ki [1] [nM] | Emax [2] [%] | EC50 [2] [nM] | Compound | Category: decrease in SBP (at minimum decrease in PAP of ≥15 mmHg) ([3]; Dose IT 0.01 mpk) | Category: decrease in SBP (at minimum decrease in PAP of ≥15 mmHg) ([3]; Dose IT 0.1 mpk) | Category: decrease in SBP (at minimum decrease in PAP of ≥15 mmHg) ([3]; Dose IT 0.03 mpk)
0.404 | 86.8 | 626 | CC1(c2nc(CCC(=O)O)c[nH]2)C(=O)Nc2nc(-c3nn(Cc4ccccc4F)c4cc(Cl)ccc34)nc(N)c21 (centres unmarked) [Example 235B, 3-(2-{4-Amino-2-[6-chloro-1-(2-fluorobenzyl)-1H-indazol-3-yl]-5-methyl-6-oxo-6,7-dihydro-5H-pyrrolo[2,3-d]pyrimidin-5-yl}-1H-imidazol-4-yl)propanoic acid] | A (decrease in SBP 0-5 mmHg) | – | –
– | – | – | C[C@@]1(c2nc(C3CC3C(=O)O)cs2)C(=O)Nc2nc(-c3nn(CCC(F)(F)C(F)(F)F)c4ncccc34)nc(N)c21 (stereo partly drawn) [Example 80BA, (5S)-2-(2-{-4-amino-5-methyl-6-oxo-2-[1-(3,3,4,4,4-pentafluorobutyl)-1H-pyrazolo[3,4-b]pyridin-3-yl]-6,7-dihydro-5H-pyrrolo[2,3-d]pyrimidin-5-yl}-1,3-thiazol-4-yl)cyclopropane-carboxylic acid] | – | B (decrease in SBP 5-10 mmHg) | –
0.112 | 105 | 71 | CC(C)(Cc1csc([C@]2(C)C(=O)Nc3nc(-c4nn(Cc5cccc(F)c5)c5ccccc45)nc(N)c32)n1)C(=O)O [Example 222A, (S)-3-(2-{4-amino-2-[1-(3-fluoro-benzyl)-1H-indazol-3-yl]-5-methyl-6-oxo-6,7-dihydro-5H-pyrrolo[2,3-d]pyrimidin-5-yl}-1,3-thiazol-4-yl)-2,2-dimethyl-propanoic acid] | B (decrease in SBP 5-10 mmHg) | – | –
0.114 | 88 | 218 | C[C@@]1(c2ccc(CCC(=O)O)cc2)C(=O)Nc2nc(-c3nn(Cc4ccccc4F)c4cc(Cl)ccc34)nc(N)c21 [Example 47B, (S)-3-(4-{4-amino-2-[6-chloro-1-(2-fluorobenzyl)-1H-indazol-3-yl]-5-methyl-6-oxo-6,7-dihydro-5H-pyrrolo[2,3-d]pyrimidin-5-yl}phenyl)propanoic acid] | – | – | A (decrease in SBP 0-5 mmHg)
2.04 | 81 | 2880 | CC1(c2cn(CCC(=O)O)nn2)C(=O)Nc2nc(-c3nn(CCC(F)(F)C(F)(F)F)c4ncccc34)nc(N)c21 (centres unmarked) [Example 12B, 3-(4-{4-amino-5-methyl-6-oxo-2-[1-(3,3,4,4,4-pentafluorobutyl)-1H-pyrazolo[3,4-b]pyridin-3-yl]-6,7-dihydro-5H-pyrrolo[2,3-d]pyrimidin-5-yl}-1H-1,2,3-triazol-1-yl)propanoic acid] | – | B (decrease in SBP 5-10 mmHg) | –
– | 116 | 485 | CC1(c2nc(CC(=O)O)co2)C(=O)Nc2nc(-c3nn(Cc4ccccc4F)c4cc(Cl)ccc34)nc(N)c21 (centres unmarked) [Example 51B, 2-(2-{4-amino-2-(6-chloro-1-(2-fluorobenzyl)-1H-indazol-3-yl)-5-methyl-6-oxo-6,7-dihydro-5H-pyrrolo[2,3-d]pyrimidin-5-yl}oxazol-4-yl)acetic acid] | A (decrease in SBP 0-5 mmHg) | – | –
– | 72 | 104 | CC(C)(Cc1coc(C2(C)C(=O)Nc3nc(-c4nn(Cc5ccccc5F)c5cc(F)ccc45)nc(N)c32)n1)C(=O)O (centres unmarked) [Example 63A, 3-(2-{4-amino-2-[6-fluoro-1-(2-fluorobenzyl)-1H-indazol-3-yl]-5-methyl-6-oxo-6,7-dihydro-5H-pyrrolo[2,3-d]pyrimidin-5-yl}oxazol-4-yl)-2,2-dimethylpropanoic acid] | A (decrease in SBP 0-5 mmHg) | – | –
– | 110 | 504 | C[C@@]1(c2nc(CC3(C(=O)O)CC3)cs2)C(=O)Nc2nc(-c3nn(CCC(F)(F)C(F)(F)F)c4ncccc34)nc(N)c21 [Example 81B, (S)-1-[(2-{4-amino-5-methyl-6-oxo-2-[1-(3,3,4,4,4-pentafluorobutyl)-1H-pyrazolo[3,4-b]pyridin-3-yl]-6,7-dihydro-5H-pyrrolo[2,3-d]pyrimidin-5-yl}-1,3-thiazol-4-yl)methyl]cyclopropane carboxylic acid] | – | – | B (decrease in SBP 5-10 mmHg)
1.85 | 90.8 | 408 | C[C@@]1(c2ccc(CCC(=O)O)cc2)C(=O)Nc2nc(-c3nn(CC4CC(F)(F)C4)c4cc(Cl)ccc34)nc(N)c21 [Example 163B, (S)-3-{4-[4-amino-2-{6-chloro-1-[(3,3-difluorocyclo-butyl)methyl]-1H-indazol-3-yl}-5-methyl-6-oxo-6,7-dihydro-5H-pyrrolo[2,3-d]pyrimidin-5-yl]phenyl}propanoic acid] | – | – | C (decrease in SBP>10 mmHg)
0.186 | 122 | 212 | CC(C)(Cc1coc(C2(C)C(=O)Nc3nc(-c4nn(CC5CCCCC5)c5cc(F)ccc45)nc(N)c32)n1)C(=O)O (centres unmarked) [Example 202A, 3-(2-{4-amino-2-[1-(cyclohexyl-methyl)-6-fluoro-1H-indazol-3-yl]-5-methyl-6-oxo-6,7-dihydro-5H-pyrrolo[2,3-d]pyrimidin-5-yl}-1,3-oxazol-4-yl)-2,2-dimethyl-propanoic acid] | A (decrease in SBP 0-5 mmHg) | – | –
0.066 | 130 | 2520 | C[C@@]1(c2ccc(CCc3nn[nH]n3)cc2)C(=O)Nc2nc(-c3nn(Cc4ccccc4F)c4cc(Cl)ccc34)nc(N)c21 [Example 112B, (S)-4-Amino-2-[6-chloro-1-(2-fluorobenzyl)-1H-indazol-3-yl]-5-methyl-5-{4-[2-(2H-tetrazol-5-yl)ethyl]phenyl}-5,7-dihydro-6H-pyrrolo[2,3-d]pyrimidin-6-one] | A (decrease in SBP 0-5 mmHg) | – | –
0.067 | 126 | 183 | CC(C)(Cc1coc(C2(C)C(=O)Nc3nc(-c4nn(Cc5ccccc5F)c5cc(Cl)ccc45)nc(N)c32)n1)C(=O)O (centres unmarked) [Example 3A, 3-(2-{4-amino-2-[6-chloro-1-(2-fluorobenzyl)-1H-indazol-3-yl]-5-methyl-6-oxo-6,7-dihydro-5H-pyrrolo[2,3-d]pyrimidin-5-yl)oxazol-4-yl}-2,2-dimethyl-propanoic acid] | A (decrease in SBP 0-5 mmHg) | – | –
0.087 | 113 | 82 | CC(C)(CCc1coc(C2(C)C(=O)Nc3nc(-c4nn(Cc5ccccc5F)c5ccccc45)nc(N)c32)n1)C(=O)O (centres unmarked) [Example 220B, 4-(2-{4-amino-2-[1-(2-fluorobenzyl)-1H-indazol-3-yl]-5-methyl-6-oxo-6,7-dihydro-5H-pyrrolo[2,3-d]pyrimidin-5-yl}-1,3-oxazol-4-yl)-2,2-dimethyl-butanoic acid] | B (decrease in SBP 5-10 mmHg) | – | –
0.304 | 99 | 537 | CC(C)(Cc1cccc(C2(C)C(=O)Nc3nc(-c4nn(CCC(F)(F)C(F)(F)F)c5ncccc45)nc(N)c32)c1)C(=O)O (centres unmarked) [Example 11B, 3-(3-{4-Amino-5-methyl-6-oxo-2-[1-(3,3,4,4,4-pentafluorobutyl)-1H-pyrazolo[3,4-b]pyridin-3-yl]-6,7-dihydro-5H-pyrrolo[2,3-d]pyrimidin-5-yl}phenyl)-2,2-dimethylpropanoic acid] | – | – | B (decrease in SBP 5-10 mmHg)
